The values that follow come from patent publication US5684020A, “Piperazine, piperidine and 1,2,5,6-tetrahydropyridine” (Adir et Compagnie, priority 1995, dated 1997).

In one data set the test system is schizophrenia patients. Conditions: Davis et al., 1983; cited from earlier work.
The subject of data set [1] is aggressiveness in isolated mice. Put plainly: Test of aggressiveness in isolated mice. Format: in vivo, male CD mice. The settings on record: Mus musculus, sc; 30 minutes before test; read-out: ID50 (dose reducing by half number or duration of attacks). An excerpt: 2. Test of aggressiveness in isolated mice
This test allows the evaluation of the intraspecies anti-aggressive activity of a product in mice that have been kept in isolation for several months.
Animals: The test uses male CD mice (Charles River) weighing from 22 to 25 g when they arrive at the animal house. On their arrival, the animals are isolated in individual cages made of opaque black polycarbonate (23×14×13 cm) with a grill lid, and are housed for a prolonged period (approximately 6 months) in the experimentation room.
Selection of pairs of mice: The selection of aggressive pairs of mice that will be used chronically in the study commences after the animals have been isolated for one month. […]
Test: The test takes place once a week. […] The latent period (in seconds) of the first attack and the number and total duration (in seconds) of the attacks are recorded. […]
Statistical analysis: The effects of a product on aggressiveness are evaluated by comparing the number and the duration of the attacks by the pairs of mice that have received the product (treated groups) with those obtained with the pairs that have received the solvent (control group) by using a variance analysis (ANOVA) followed by a Dunnett's test, with the probability p<0.05. […]

Data set [2] can be described thus: Induction of catalepsy in the rat. The settings on record: in vivo, sc, 1 hour after injection, 50% of maximum 30 seconds. An excerpt: 3. Induction of catalepsy in the rat
The acute administration of "typical" antipsychotics to an animal induces catalepsy, that is to say the maintenance of the animal in an often abnormal posture which has been imposed upon it by the experimenter (Waldmeier, 1979). The evaluation of the cataleptogenic properties of a product in the rat thus makes it possible to know whether that product, administered to man, will or will not risk causing an extrapyramidal-type syndrome.
Test: The animals are placed in individual cages and food is withdrawn the day before the test but water taken as desired. The catalepsy test comprises placing each rear paw of the animal on the front paw of the same side and measuring the time (seconds) that the animal remains in that "crossed paws" position (maximum 30 seconds). Each animal is subjected to 3 successive tests (one every two minutes), the animal being removed from its cage and placed on the work surface. Those tests are carded out 1 hour after the subcutaneous injection or oral administration of the product or its solvent. The average value of 3 tests represents the duration of the catalepsy (seconds) for each animal. There are 5 or 6 rats per experimental group.
Statistical analysis: The effect of the product on the duration of the catalepsy is evaluated by an ANOVA, followed by a Dunnett's test, with the probability p<0.05. […]

For data set [3], the system named is Verticalisation induced by apomorphine. Put plainly: Verticalisation induced by apomorphine in the mouse. The settings on record: sc, 0.5 h, s.c., apomorphine 0.75 mg/kg s.c. 30 minutes later, read-out: ID50 (dose reducing by half the average verticalisation score). The data set is classed as in vivo. The procedure:
1. Verticalisation induced by apomorphine (0.75 mg/kg, s.c.) in the mouse
This test, described by Protais et al (Psychopharmacologie, 1976, 50, 1-6) allows the evaluation of the dopaminergic antagonist activity of possible antipsychotic products. A mouse to which apomorphine has been administered and which has been placed in a cage comprising vertical bars, remains most of the time immobile at the top of the cage clinging by its 4 paws to the bars. That verticalisation behaviour is blocked if a dopaminergic antagonist product has been administered before the apomorphine.
Test: After the subcutaneous (s.c.) administration of the product or solvent (control group), the mouse is placed in a cylindrical barred cage (14 cm diam.×14 cm h) having vertical bars. Thirty minutes later, the animal receives the apomorphine dose (0.75 mg/kg, s.c.). […]
Statistical analysis: The effect of the product on verticalisation is evaluated by comparing the scores obtained for each group that has been administered a dose of product with those obtained for the control group (solvent) using a Mann and Whitney U test, with a probability p<0.05. […]

A further data set concerns dopamine turnover. Kind of data set: Dopamine turnover (DOPAC/dopamine ratio) in rat brain structures. Format: in vivo, Male Wistar rats. Conditions: regions studied: frontal cortex, nucleus accumbens, olfactory tubercles, striatum. The procedure:
by dopamine synthesis (turnover) studies in the following structures: frontal cortex (mesocortical pathway), nucleus accumbens and olfactory tubercle (mesolimbic pathway), striatum (nigrostriatal pathway). The functional dopaminergic antagonists cause an increase in the synthesis of dopamine in those structures.
Male Wistar rats (Iffa Credo, Illskirchen France) weighing 250 to 280 g are kept in a 12h/12h light/darkness cycle (light switched on at 7.30 a.m.). They have free access to water and food; the laboratory temperature is 21°±1° C. and the humidity is 60±5%.
Dopamine turnover: The effect of the products of the invention and the reference product on dopamine turnover is determined after subcutaneous injection. After a period of 30 minutes, the rats are decapitated and the brain is dissected in order to extract the striatum, the nucleus accumbens, the frontal cortex and the olfactory tubercles. The tissues are homogenised in 500 μl of HClO4 0.1M containing 0.5% Na2 S2 O5 and 0.5% EDTA Na2 and centrifuged at 15,000 g for 15 minutes at 4° C. The supernatants are diluted in the mobile phase and injected into an HPLC column (Hypersil ODS 5 μm, C18, 150×4.6mm, Thermo Separation Products, Les Ulis, France) thermostatically controlled at 25° C. […]

Where only a bound is given, the exact number is not on record here.

As to `CN(C)CCCN1c2ccccc2Sc2ccc(Cl)cc21` [chlorpromazine], in the data set with schizophrenia patients, the “extrapyramidal symptoms (in words)” value is recorded as “often brings about the appearance of undesirable extrapyramidal symptoms (EPS) of the Parkinson's type”.
For `CN1CCN(C2=Nc3cc(Cl)ccc3Nc3ccccc32)CC1` [clozapine], in the data set with schizophrenia patients, the “extrapyramidal symptoms (in words)” value is given as “cause few extrapyramidal symptoms”.
`c1ccc2c(c1)CC(CN1CCN(c3ccc4c(c3)OCCO4)CC1)C2` [Example 6, 4-(2,3-Dihydrobenzo-1,4-dioxin-6-yl)-1-(indan-2-ylmethyl)piperazine]: the ED50 in data set [1] worked out at 0.99 mg/kg; in data set [3], 3.88 mg/kg. In data set [2], this compound came in with an ED50 at 1 h of over 80 mg/kg.
In the case of `O=C(CCCN1CCC(O)(c2ccc(Cl)cc2)CC1)c1ccc(F)cc1` [Haloperidol], the “extrapyramidal symptoms (in words)” value in the data set on schizophrenia patients is given as “often brings about the appearance of undesirable extrapyramidal symptoms (EPS) of the Parkinson's type”. The same compound registered an ED50 at 1 h in data set [2] of 0.146 mg/kg. Also, the “effect on dopaminergic transmission (in words)” value in the data set with dopamine turnover is given as “significant effect on dopaminergic transmission in each of the regions studied”.
